Experiment [1] deals with E. coli ΔtolC (JW5503). In words: MIC, broth microdilution (CLSI). The experiment is classed as cell-based, Escherichia coli. The note with it: Escherichia coli. How it is done:
(§1) II. Materials and Methods for Biological Experiments
(§2) S. aureus ATCC 29213 and E. coli MG1655 were obtained from the American Type Culture Collection (ATCC). E. coli BW25113 and E. coli JW5503 were obtained from the Keio Collection. AR-bank strains were obtained from the Centers for Disease Control and Prevention and FDA Antibiotic Resistance Isolate Bank.
(§3) Antimicrobial susceptibility tests
(§4) Susceptibility testing was performed in biological triplicate, unless noted otherwise, using the micro-dilution broth method as outlined by the Clinical and Laboratory Standards Institute. Bacteria were cultured with cation-adjusted Mueller Hinton broth (Sigma Aldrich, catalogue number: 90922). […]
(§5) NH3: m/z 391.2 → 171.0. Fabimycin: m/z 405.3 → 145.3. Power analysis was not used to determine the number of replicates. Error bars represent the standard error of the mean of three biological replicates. All compounds evaluated in biological assays were ≥95% pure.
In general terms: Broth dilution looks for growth in wells or tubes with falling amounts of substance.

In experiment [2] the test system is K. pneumoniae AR-0113. Briefly: MIC, broth microdilution (CLSI). The experiment is classed as cell-based. The conditions noted are these: Klebsiella pneumoniae, AR0113; K. pneumoniae AR-0113 clinical isolate. How it is done:
as §1, §2, §3, §4
(§6) Error bars represent the standard error of the mean of three biological replicates. All compounds evaluated in biological assays were ≥95% pure.

Experiment [3] deals with A. baumannii AR-0313. Briefly: MIC, broth microdilution (CLSI). The experiment is classed as cell-based. The note with it: Acinetobacter baumannii, AR0313; A. baumannii AR-0313 clinical isolate; † = dose-independent trailing growth. How it is done: as §1, §2, §3, §4, §6
Experiment [4] has as its system K. pneumoniae AR-0560. Briefly: MIC, broth microdilution (CLSI). The conditions noted are these: Klebsiella pneumoniae, AR0560; K. pneumoniae AR-0560 clinical isolate. The experiment is classed as cell-based. How it is done: as §1, §2, §3, §4, §5
Experiment [5] concerns A. baumannii AR-0299. In words: MIC, broth microdilution (CLSI). The experiment is classed as cell-based. The note with it: Acinetobacter baumannii, AR0299; A. baumannii AR-0299 clinical isolate; † = dose-independent trailing growth. How it is done: as §1, §2, §3, §4, §5
Experiment [6] has as its system K. pneumoniae BAA-2472. In words: MIC, broth microdilution (CLSI). The experiment is classed as cell-based. The conditions noted are these: Klebsiella pneumoniae, BAA2472. How it is done: as §1, §2, §3, §4, §5
Experiment [7] concerns E. coli AR-0048. In words: MIC, broth microdilution (CLSI). The experiment is classed as cell-based. The conditions noted are these: Escherichia coli, AR0048; E. coli AR-0048 clinical isolate. How it is done: as §1, §2, §3, §4, §5
Experiment [8] has as its system K. pneumoniae AR-0066. In words: MIC, broth microdilution (CLSI). The experiment is classed as cell-based. The note with it: Klebsiella pneumoniae, AR0066; K. pneumoniae AR-0066 clinical isolate. How it is done:
as §1, §2, §3, §4, §5

The subject of experiment [9] is E. coli AR-0085. In words: MIC, broth microdilution (CLSI). The experiment is classed as cell-based. The note with it: Escherichia coli, AR0085; E. coli AR-0085 clinical isolate. How it is done: as §1, §2, §3, §4, §5
Experiment [10] deals with A. baumannii AR-0033. In words: MIC, broth microdilution (CLSI). The experiment is classed as cell-based. The note with it: Acinetobacter baumannii, AR0033; A. baumannii AR-0033 clinical isolate; † = dose-independent trailing growth. How it is done: as §1, §2, §3, §4, §5
Experiment [11] deals with A. baumannii AR-0273. In words: MIC, broth microdilution (CLSI). The conditions noted are these: Acinetobacter baumannii, AR0273; A. baumannii AR-0273 clinical isolate. The experiment is classed as cell-based. How it is done:
as §1, §2, §3, §4, §5

Experiment [12] relates to S. aureus ATCC 29213. In words: MIC, broth microdilution (CLSI). The experiment is classed as cell-based. The conditions noted are these: Staphylococcus aureus, ATCC29213; S. aureus 29213. How it is done:
as §1, §2, §3, §4, §5

Experiment [13] concerns E. coli MG1655. Briefly: MIC, broth microdilution (CLSI). The experiment is classed as cell-based. The note with it: Escherichia coli. How it is done: as §1, §2, §3, §4, §5
Experiment [14] has as its system panel of 10 clinical isolates (two E. coli, four K. pneumoniae, four A. baumannii). Briefly: MIC, Gram-negative clinical isolate challenge panel. The experiment is classed as cell-based. The note with it: 10 clinical isolates; read-out: MIC, all strains of the clinical isolate challenge panel.

Results on 5 molecules are retold here after publication PMC9413440, “An Iterative Approach Guides Discovery of the FabI Inhibitor Fabimycin, a Late-Stage Antibiotic Candidate with In Vivo Efficacy against Drug-Resistant Gram-Negative Infections” (ACS Central Science, 2022).

In general, MIC refers to the smallest concentration in the dilution series that meets the test's criterion for growth inhibition.

Structures are written as SMILES. Converted amounts (≈) assume the structure as drawn.

Regarding `Cc1c(CN(C)C(=O)/C=C/c2cnc3c(c2)CC2(CC(N)C2)C(=O)N3)oc2ccccc12` (racemic) [(±)-3], the MIC is 0.062 µg/mL (≈ 0.144 µM) in [1]; 16 µg/mL (≈ 37.2 µM) in [2]; 32 µg/mL (≈ 74.3 µM) in [3]; 8 µg/mL (≈ 18.6 µM) in experiment [4]; 16 µg/mL (≈ 37.2 µM) in experiment [5]; 8 µg/mL (≈ 18.6 µM) in [6]. In addition, the MIC in experiment [7] turned out to be 16 µg/mL (≈ 37.2 µM); in experiment [8] it was 8 µg/mL (≈ 18.6 µM); in experiment [9], 16 µg/mL (≈ 37.2 µM); in [10] it was 16 µg/mL (≈ 37.2 µM); in [11], 16 µg/mL (≈ 37.2 µM); in experiment [12], 0.016 µg/mL (≈ 0.0372 µM). Besides, the MIC in experiment [13] was found to be 4 µg/mL (≈ 9.29 µM).
Turning to `Cc1c(CN(C)C(=O)/C=C/c2cnc3c(c2)CC2(CC(CN)C2)C(=O)N3)oc2ccccc12` (racemic) [(±)-4], the MIC in experiment [1] is 0.125 µg/mL (≈ 0.281 µM); in experiment [12] it was 0.031 µg/mL (≈ 0.0697 µM); in [13], 16 µg/mL (≈ 36 µM).
For `Cc1c(CN(C)C(=O)/C=C/c2cnc3c(c2)CC2(CCC(N)CC2)C(=O)N3)oc2ccccc12` (racemic) [(±)-5], the MIC in [1] stood at 0.062 µg/mL (≈ 0.135 µM); in experiment [12], 0.016 µg/mL (≈ 0.0349 µM); in experiment [13] it was 16 µg/mL (≈ 34.9 µM).
The matching figures for `Cc1c(CN(C)C(=O)/C=C/c2cnc3c(c2)CC2(CCC(CN)CC2)C(=O)N3)oc2ccccc12` (racemic) [(±)-6]: 0.062 µg/mL (≈ 0.131 µM), 0.031 µg/mL (≈ 0.0656 µM) and 16 µg/mL (≈ 33.9 µM).
For `Cc1c(CN(C)C(=O)/C=C/c2cnc3c(c2)CCC(N)C(=O)N3)oc2ccccc12` (racemic) [(±)-7], the MIC in [1] was 0.031 µg/mL (≈ 0.0766 µM); in [2], 8 µg/mL (≈ 19.8 µM); in experiment [3] it was 8 µg/mL (≈ 19.8 µM); in experiment [14] it was not above 8 µg/mL; in experiment [4], 8 µg/mL (≈ 19.8 µM); in experiment [5], 4 µg/mL (≈ 9.89 µM). Moreover, the MIC in experiment [6] stood at 8 µg/mL (≈ 19.8 µM); in [7], 4 µg/mL (≈ 9.89 µM); in experiment [8], 8 µg/mL (≈ 19.8 µM); in experiment [9], 4 µg/mL (≈ 9.89 µM); in experiment [10], 4 µg/mL (≈ 9.89 µM); in experiment [11], 8 µg/mL (≈ 19.8 µM). In addition, the figures for the MIC in experiment [12] and in experiment [13] were 0.016 µg/mL (≈ 0.0396 µM) and 4 µg/mL (≈ 9.89 µM), respectively.
